Source: US6143759A, “Tetrazoles” (BYK Gulden Lomberg Chemische Fabrik GmbH, priority 1997, dated 2000)
Structures can show the parent of a compound that is named as a salt.

Tests used:
PDE3 = biological target: T1, PDE3 (Homo sapiens, UniProt Q14432); assay: Inhibition of PDE isoenzymes: PDE3 (cGMP-inhibited), homogenates of human blood platelets; type: biochemical; details: cAMP or cGMP as substrate, 0.5 μM, pH 7.4, 37° C., 15 min; for IC50: read-out: PDE3 -log IC50 (converted)
T1 construct: were investigated in homogenates of human blood platelets; from tissue; host or cells: homogenates of human blood platelets
T1 sequence (Q14432 whole entry): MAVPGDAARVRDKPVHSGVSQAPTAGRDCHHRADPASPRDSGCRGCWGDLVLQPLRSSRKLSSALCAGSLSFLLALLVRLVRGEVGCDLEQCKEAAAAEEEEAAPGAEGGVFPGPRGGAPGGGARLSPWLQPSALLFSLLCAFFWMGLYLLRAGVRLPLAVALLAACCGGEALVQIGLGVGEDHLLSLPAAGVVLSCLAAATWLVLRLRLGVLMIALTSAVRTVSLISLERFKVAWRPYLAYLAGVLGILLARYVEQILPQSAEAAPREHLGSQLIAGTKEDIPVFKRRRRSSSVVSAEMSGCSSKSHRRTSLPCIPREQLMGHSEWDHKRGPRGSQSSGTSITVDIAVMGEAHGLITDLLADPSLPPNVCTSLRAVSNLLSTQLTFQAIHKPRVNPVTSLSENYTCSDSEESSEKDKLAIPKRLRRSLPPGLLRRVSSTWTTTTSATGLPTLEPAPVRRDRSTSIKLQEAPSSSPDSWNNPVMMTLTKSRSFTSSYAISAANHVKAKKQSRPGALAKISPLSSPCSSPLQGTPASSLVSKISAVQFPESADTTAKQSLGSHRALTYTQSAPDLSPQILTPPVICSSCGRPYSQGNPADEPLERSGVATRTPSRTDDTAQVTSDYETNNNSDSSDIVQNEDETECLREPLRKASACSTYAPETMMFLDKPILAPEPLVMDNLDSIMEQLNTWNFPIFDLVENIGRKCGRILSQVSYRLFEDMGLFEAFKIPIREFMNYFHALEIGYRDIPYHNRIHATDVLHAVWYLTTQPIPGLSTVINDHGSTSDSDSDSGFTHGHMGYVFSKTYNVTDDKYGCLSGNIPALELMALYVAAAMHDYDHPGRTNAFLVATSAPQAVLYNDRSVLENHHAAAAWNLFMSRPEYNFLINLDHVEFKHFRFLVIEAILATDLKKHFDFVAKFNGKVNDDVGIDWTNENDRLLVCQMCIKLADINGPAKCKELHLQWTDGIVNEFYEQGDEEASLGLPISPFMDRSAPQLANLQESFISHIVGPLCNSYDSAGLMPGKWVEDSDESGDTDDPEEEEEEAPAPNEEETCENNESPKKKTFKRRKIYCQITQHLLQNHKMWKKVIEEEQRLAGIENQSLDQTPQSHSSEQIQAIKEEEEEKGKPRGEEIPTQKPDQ

PDE4 = assay: Inhibition of PDE isoenzymes: PDE4 (cAMP-specific), cytosol of human polymorphonuclear leukocytes, cAMP as substrate; type: biochemical; details: cytosol of human PMNL; 0.5 μM cAMP; motapizone (1 μM) present; pH 7.4, 37° C., 15 min

Row | IC50 (PDE3) | PDE4 -log IC50 (PDE4) | PDE3 -log IC50 (PDE3) | SMILES
1 | 0.166 µM | 6.42 mol/l |  | COc1cc2c(cc1OC)[C@@H]1CN(C)CC[C@@H]1N=C2c1ccc(-c2nn[nH]n2)cc1 (single isomer, unassigned) [Compound 1, (-)-cis-8,9-Dimethoxy-2-methyl-6-[4-(1H- and 2H-tetrazol-5-yl)phenyl]-1,2,3,4,4a,10b-hexahydrobenzo[c][1,6]naphthyridine]
2 | 0.457 µM | 6.13 mol/l |  | CCn1nnc(-c2ccc(C3=N[C@H]4CCN(C)C[C@H]4c4cc(OC)c(OC)cc43)cc2)n1 (single isomer, unassigned) [Compound 2, (-)-cis-8,9-Dimethoxy-2-methyl-6-[4-(2H-2-ethyltetrazol-5-yl)phenyl]-1,2,3,4,4a,10b-hexahydrobenzo[c][1,6]naphthyridine hydrochloride]
3 | 0.209 µM | 7.64 mol/l |  | CCOc1cc2c(cc1OCC)[C@@H]1CN(C)CC[C@@H]1N=C2c1ccc(-c2nnn(CC)n2)cc1 (single isomer, unassigned) [Compound 3, (-)-cis-8,9-Diethoxy-2-methyl-6-[4-(2H-2-ethyltetrazol-5-yl)phenyl]-1,2,3,4,4a,10b-hexahydrobenzo[c][1,6]naphthyridine hydrochloride]
4 | 0.355 µM | 5.92 mol/l |  | COc1cc2c(cc1OC)[C@@H]1CN(C)CC[C@@H]1N=C2c1ccc(-c2nnn(C)n2)cc1 (single isomer, unassigned) [Compound 4, (-)-cis-8,9-Dimethoxy-2-methyl-6-[4-(2H-2-methyltetrazol-5-yl)phenyl]-1,2,3,4,4a,10b-hexahydrobenzo[c][1,6]naphthyridine]
5 | 0.204 µM | 8.03 mol/l |  | CCOc1cc2c(cc1OCC)[C@@H]1CN(C)CC[C@@H]1N=C2c1ccc(-c2nnn(Cc3ccc(OC)cc3)n2)cc1 (single isomer, unassigned) [Compound 5, (-)-cis-8,9-Diethoxy-2-methyl-6-[[4-[2H-2-(4-methoxybenzyl)tetrazol-5-yl]-phenyl]]-1,2,3,4,4a,10b-hexahydrobenzo[c][1,6]naphthyridine hydrochloride]
6 |  | 7.26 mol/l | 6.52 mol/l | CCOc1cc2c(cc1OCC)[C@@H]1CN(C)CC[C@@H]1N=C2c1ccc(-c2nnn(C)n2)cc1 (single isomer, unassigned) [Compound 6, (-)-cis-8,9-Diethoxy-2-methyl-6-[4-(2H-2-methyltetrazol-5-yl)phenyl]-1,2,3,4,4a,10b-hexahydrobenzo[c][1,6]naphthyridine hydrochloride]
7 | 0.148 µM | 6.74 mol/l |  | COc1ccc(Cn2nnc(-c3ccc(C4=N[C@H]5CCN(C)C[C@H]5c5cc(OC)c(OC)cc54)cc3)n2)cc1 (single isomer, unassigned) [Compound 7, (-)-cis-8,9-Dimethoxy-2-methyl-6-[[4-[2H-2-(4-methoxybenzyl)tetrazol-5-yl]phenyl]]-1,2,3,4,4a,10b-hexahydrobenzo[c][1,6]naphthyridine hydrochloride]
8 | 0.309 µM | 7.64 mol/l |  | CCOc1cc2c(cc1OCC)[C@@H]1CN(C)CC[C@@H]1N=C2c1ccc(-c2nnn(CC3CCCCC3)n2)cc1 (single isomer, unassigned) [Compound 8, (-)-cis-8,9-Diethoxy-2-methyl-6-[4-(2H-2-cyclohexylmethyltetrazol-5-yl)phenyl]-1,2,3,4,4a,10b-hexahydrobenzo[c][1,6]naphthyridine hydrochloride]
9 | 0.148 µM | 7.96 mol/l |  | CCOc1cc2c(cc1OC)C(c1ccc(-c3nnn(CC)n3)cc1)=N[C@H]1CCN(C)C[C@@H]21 (single isomer, unassigned) [Compound 9, (-)-(cis)-9-Ethoxy-8-methoxy-2-methyl-6-[4-(2H-2-ethyltetrazol-5-yl)phenyl]-1,2,3,4,4a,10b-hexahydrobenzo[c][1.6]naphthyridine]
10 | 0.275 µM | 6.08 mol/l |  | CCOc1cc2c(cc1OC)[C@@H]1CN(C)CC[C@@H]1N=C2c1ccc(-c2nnn(CC)n2)cc1 (single isomer, unassigned) [Compound 10, (-)-cis-8-Ethoxy-9-methoxy-2-methyl-6-[4-(2H-2-ethyltetrazol-5-yl)-phenyl]-1,2,3,4,4a,10b-hexahydrobenzo[c][1.6]naphthyridine hydrochloride]
11 |  | 7.40 mol/l | 5.66 mol/l | CCOc1cc2c(cc1OCC)[C@@H]1CN(C)CC[C@@H]1N=C2c1cccc(-c2nnn(CC)n2)c1 (single isomer, unassigned) [Compound 11, (-)-cis-8,9-Diethoxy-2-methyl-6-[3-(2H-2-ethyltetrazol-5-yl)-phenyl]-1,2,3,4,4a,10b-hexahydrobenzo[c][1,6]naphthyridine hydrochloride]
12 | 0.708 µM | 7.82 mol/l |  | CCOc1cc2c(cc1OC)C(c1cccc(-c3nnn(CC)n3)c1)=N[C@H]1CCN(C)C[C@@H]21 (single isomer, unassigned) [Compound 12, (-)-cis-9-Ethoxy-8-methoxy-2-methyl-6-[3-(2H-2-ethyltetrazol-5-yl)-phenyl]-1,2,3,4,4a,10b-hexahydrobenzo[c][1.6]naphthyridine hydrochloride]
13 | 0.631 µM | 8.24 mol/l |  | CCCCCCn1nnc(-c2ccc(C3=N[C@H]4CCN(C)C[C@H]4c4cc(OCC)c(OC)cc43)cc2)n1 (single isomer, unassigned) [Compound 15, (-)-cis-9-Ethoxy-8-methoxy-2-methyl-6-[4-(2H-2-hexyltetrazol-5-yl)-phenyl]-1,2,3,4,4a,10-hexahydrobenzo[c][1.6]naphthyridine hydrochloride]
14 | 0.219 µM | 7.94 mol/l |  | CCCn1nnc(-c2ccc(C3=N[C@H]4CCN(C)C[C@H]4c4cc(OCC)c(OC)cc43)cc2)n1 (single isomer, unassigned) [Compound 16, (-)-cis-9-Ethoxy-8-methoxy-2-6-[4-(2H-2-propyltetrazol-5-yl)-phenyl]-1,2,3,4,4a,10b-hexahydrobenzo[c][1.6]naphthyridine hydrochloride]
15 | 0.195 µM | 7.44 mol/l |  | CCOc1cc2c(cc1OCC)[C@@H]1CN(C)CC[C@@H]1N=C2c1ccc(-c2nn[nH]n2)cc1 (single isomer, unassigned) [Compound 17, (-)-cis-8.9-Diethoxy-2-methyl-6-[4-(1H- and 2H-2-tetrazol-5-yl)-phenyl]-1,2,3,4,4a,10b-hexahydrobenzo[c][1.6]naphthyridine]
16 | 0.145 µM | 7.81 mol/l |  | CCOc1cc2c(cc1OC)C(c1ccc(-c3nn[nH]n3)cc1)=N[C@H]1CCN(C)C[C@@H]21 (single isomer, unassigned) [Compound 18, (-)-cis-9-Ethoxy-8-methoxy-2-methyl-6-[4-(1H- and 2H-2-tetrazol-5-yl)-phenyl]-1,2,3,4,4a,10b-hexahydrobenzo[c][1.6]naphthyridine]
